The text below walks through data of publication PMC5788896 (Frontiers in Pharmacology, 2018).

The test system of one series is Catalase (CAT). The series is described as follows: Catalase activity in liver after 28-day treatment. The class given is in vivo, C57BL/6 mice. The following applies: mice liver. Here is the method: At the end of treatment, mice were killed. […] Catalase (CAT) activity. The reaction was started in a quartz cuvette containing 50 mM potassium phosphate buffer and cytosol sample by adding 30 mM H2O2.

Series [1] is described as follows: Hematochemical analysis and lipid serum profile after 28-day treatment. It is filed as in vivo, C57BL/6 mice. The protocol: (§1) At the end of treatment, mice were killed.
For each animal, blood samples were collected in both heparinized and non-heparinized tubes. Plasma from heparinized samples was obtained after tabletop centrifugation at 2,000 rpm, while blood in non-heparinized tubes was centrifuged at 1,500 rpm for 10 min after complete coagulation, to obtain serum. Biochemical and hematological analyses were assessed by the Department of Veterinary Medical Science, University of Bologna.

The test system of series [2] is NCM460 cell monolayers. Put plainly: Permeation studies across NCM460 cell monolayers (Millicell inserts, HPLC). The following applies: A → B higher than B → A, P < 0.001. It is filed as in vitro ADME, human. The protocol:
Differentiation to NCM460 cell monolayers was performed essentially according to the method reported by [Ferretti et al. (2015)]. Briefly, after two passages, confluent NCM460 cells were seeded at a density of 10^5 cells/mL in a 1:1 ratio of fresh and spent culture medium in 12-well Millicell inserts (Millipore, Milan, Italy) consisting of 1.0 μm pore size polyethylene terephthalate (PET) filter membranes, whose surface was 1.12 cm^2. Filters were presoaked for 24 h with fresh culture medium, and then the upper compartment (apical, A) received 400 μL of the diluted cells, whereas the lower compartment (basolateral, B) received 2 mL of the medium in the absence of cells. […] The integrity of the cell monolayers was monitored by measuring the transepithelial electrical resistance (TEER) by means of a voltmeter (Millicell-ERS; Millipore, Milan, Italy). The measured resistance value was multiplied by the area of the filter to obtain an absolute value of TEER, expressed as Ω⋅cm^2. […] The homogeneity and integrity of the cell monolayer were also monitored by phase contrast microscopy. […]
Permeation experiments were performed in triplicate in both the apical-to-basolateral (A → B) and basolateral-to-apical (B → A) directions. […] TEER values were monitored before and after each experiment. […]
The permeabilities were determined for the filters alone (Pf), and for the filters covered with cells (Pt). […]

In series [3] the test system is Oxidized glutathione reductase (GSSG-red). Put plainly: Oxidized glutathione reductase activity in liver after 28-day treatment. It is filed as in vivo, C57BL/6 mice. The conditions noted are these: mice liver. The protocol: At the end of treatment, mice were killed. […] Oxidized glutathione reductase activity (GSSG-red). […] The generation of NADP^+ from NADPH during the reduction of GSSG was recorded at 340 nm for 5 min at 37°C. GSSG-red activity was calculated using the extinction coefficient of 6.22 per mM x cm, and expressed as mol of NADPH consumed/min per mg protein ([Bonamassa et al., 2016]).

Series [4] has as its system UDP glucuronosyl-transferase (UDPGT). The series is described as follows: UDP-glucuronosyl transferase activity in liver after 28-day treatment. It is filed as in vivo, C57BL/6 mice. The following applies: mice liver. Here is the method: At the end of treatment, mice were killed. […] Experiments were performed in the presence or absence of Triton X-100 (0.2%) as a detergent, in order to improve the assay sensitivity ([Canistro et al., 2008]).

A short description of series [5]: Stability of geraniol in phosphate buffered saline. It is filed as physicochemical. The conditions noted are these: 37°C, for at least 8 h, data not shown. The text has this: During the experiment drug solutions were shaken continuously and gently in an oscillating water-bath.
Details of series [6]: method as in Turina et al., 2006. The conditions noted are these: ref Turina et al., 2006; cited from earlier work.
Details of series [7]: method as in Turina et al., 2006. The following applies: ref Turina et al., 2006; cited from earlier work. The source holds these as a separate data set.
Series [8] is described as follows: Intravenous infusion pharmacokinetics, whole blood by HPLC. The class given is in vivo, Sprague-Dawley rats. Here is the method:
The samples were extracted and analyzed as described above, with the only difference that the samples withdrawn within 20 min after infusion were diluted 1:10 using the H2O:CH3CN mixture (50:50 v/v) before analysis. Four rats ware employed for intravenous infusions of geraniol. […] The calculations were performed using the computer program GraphPad Prism. […] At the end of the oral administration and at fixed time points, blood samples (100 μL) were collected and CSF samples (50 μL) were withdrawn using the cysternal puncture method described by [van den Berg et al. (2002)], which requires a single needle stick and allows the collection of serial (40–50 μL) CSF samples that are virtually blood-free ([Dalpiaz et al., 2014]). A total volume of approximately 150 μL of CSF was collected during the experimental session. […] In particular, blood withdrawals for all programmed time points were repeated four times with a corresponding number of rats; CSF withdrawals for all programmed time points were repeated at least four times with a number of rats allowing no more than three CSF withdrawals from each of them. […] All the calculations were performed using the computer program Graph Pad Prism.

Series [9] concerns Glutathione S-transferase (GST). Put plainly: Glutathione S-transferase activity in liver after 28-day treatment. The following applies: mice liver. It is filed as in vivo, C57BL/6 mice. Here is the method:
as §1
The incubation mixture for measuring overall GST activity contained 1 mM glutathione + 1 mM 1-chloro-2,4-dinitrobenzene (CDNB) in methanol + 0.025 mL of sample in a final volume of 2.5 mL 0.1 M phosphate Na^+/K^+ buffer (pH 6.5). The product of the reaction of the thiol group of glutathione with the electrophilic group of CDNB was read at 340 nm (ε = 9.6 mM^-1 cm^-1) ([Vivarelli et al., 2016a]).

In series [10] the test system is NAD(P)H: quinone reductase (NQO1). The series is described as follows: NAD(P)H:quinone reductase activity in liver after 28-day treatment. The class given is in vivo, C57BL/6 mice. The following applies: mice liver, geraniol 120 mg/kg by gavage for 28 days. The text has this: At the end of treatment, mice were killed. […] NAD(P)H:quinone reductase (NQO1) activity.

The subject of series [11] is Superoxide dismutase (SOD). The series is described as follows: Superoxide dismutase activity in liver after 28-day treatment. It is filed as in vivo, C57BL/6 mice. The following applies: mice liver. The protocol:
At the end of treatment, mice were killed. […] Superoxide dismutase activity (SOD): Superoxide dismutase activity was determined according to Misra and Fridovich’s assay ([Misra and Fridovich, 1972]). Briefly, the activity was assayed spectophotometrically at […] by monitoring the generation of adenochrome, one of the main products of epinephrine autoxidation at pH 10.2. The dejection of autoxidation was used to calculate SOD activity using the extinction coefficient of 4.02 per mM × cm, and expressed as mol of epinephrine oxidized/min per mg protein, derived by subtracting each test curve from the epinephrine autoxidation standard curve ([Bonamassa et al., 2016]).

Series [12] concerns NCM460 cell monolayers. The conditions noted are these: P-gp efflux transporter substrate; ref Marchetti et al., 2016; cited from earlier work.
The conditions of series [13]: intravenous administration of 1 mg/kg; ref Gavini et al., 2011; cited from earlier work.
Setting [14] is: geraniol 120 mg/kg by gavage for 28 days.
Where [15] appears, read: mice blood, geraniol 120 mg/kg by gavage for 28 days.
[16] abbreviates: mice serum, geraniol 120 mg/kg by gavage for 28 days.
The mark [17] stands for this setting: 120 mg/kg 28 days, versus controls.

The term half-life denotes how long it takes for the measured level to halve.

Consider `CC(C)=CCC/C(C)=C/CO` [geraniol, 3,7-dimethylocta-trans-2,6-dien-1-ol], for which the “catalase (CAT) induction with respect to controls” value with Catalase (CAT) (120 mg/kg 28 days, P < 0.01) is on record as “up to 29%”. The “Catalase (CAT), Mean” value in the series on Catalase (CAT) (setting [14]) came to 2.55 µmol/mg/min. In series [1] (setting [15]), this molecule displayed an ALT of 34 ± 5 U/l and an AST of 149 ± 24 U/l. Further, in series [1] (setting [16]), the Cholesterol stood at 94 ± 7 mg/dL and the HDL cholesterol was determined as 66 ± 4 mg/dL. The liver toxicity result in [1] (mice, 120 mg/kg of geraniol for 4 weeks) was “no signs of liver toxicity”. Also, the “permeation rate apical to basolateral versus opposite direction” value in the series on NCM460 cell monolayers [2] was “roughly sixfold”. Moreover, the “oxidized glutathione reductase (GSSG-red) induction with respect to controls” value in [3] (120 mg/kg 28 days, P < 0.01) was “up to 56%”. Also, in [3] (setting [14]), the “Oxidized glutathione reductase (GSSG-red), Mean” value is 118.31 µmol/mg/min. Also, in [4] (setting [17]), the “effect on Phase II enzymes (UDPGT)” value is “not affected”. In addition, the “UDP glucuronosyl-transferase (UDPGT), Mean” value in series [4] (setting [14]) is 3.89 nmol/mg/min. Moreover, the “stability in PBS” value in series [5] is listed as “highly stable”. In addition, in [6], the n-octanol/water partition coefficient was 2.65. Besides, in series [7], the “membrane/water partition coefficient (Pm/w)” value is 4.38. For the same molecule, the “drug concentration in the rat bloodstream after intravenous infusion” value in series [8] (iv infusion 12.5 mg (50 mg/kg), end of infusion) worked out at 298 ± 19 µg/mL. Moreover, in series [8] (male, Sprague-Dawley, rat, iv 50 mg/kg, blood, within 3 h, read-out: AUC, intravenous administration (converted)), the AUC was 126 µg·h/mL. In series [8] (male, Sprague-Dawley, rat, iv infusion 12.5 mg (50 mg/kg), apparent first order kinetics, read-out: half-life in the bloodstream), the half-life was determined as 12.5 ± 1.5 min. Also, the “effect on Phase II enzymes (GST)” value in series [9] (setting [17]) was “not affected”. For the same molecule, in series [9] (setting [14]), the “Glutathione S-transferase (GST), Mean” value was found to be 2.60 µmol/mg/min. Moreover, in [10], the “NAD(P)H: quinone reductase (NQO1), Mean” value came to 12.43 nmol/mg/min. In addition, the “effect on Superoxide dismutase (SOD) activity” value in series [11] (setting [17]) is “not affected”. Also, in [11] (setting [14]), the “Superoxide dismutase (SOD), Mean” value stood at 13.65 nmol/mg/min.

Turning to `CC12CCC(CC1=O)C2(C)C` (stereo not shown) [camphor], in series [7], the “membrane/water partition coefficient (Pm/w)” value is given as 3.99.

Regarding `CC12CCC(CC1)C(C)(C)O2` [cineole], in series [7], the “membrane/water partition coefficient (Pm/w)” value was 3.37.

On to `CCN(CC)C(=O)Nc1ccc(OCC(O)CNC(C)(C)C)c(C(C)=O)c1` (stereo not shown) [celiprolol], for which the “direction of transport across NCM460 monolayers” value in the series with NCM460 cell monolayers [12] is reported as “rate from basolateral to apical compartments being significantly higher than its rate in the opposite direction”.

As to `CC1CCC(C(C)C)C(O)C1` (stereo not shown) [menthol], the “membrane/water partition coefficient (Pm/w)” value in series [7] is on record as 2.44.

Take `CCCC(=O)O[C@H]1[C@H](C)O[C@@H](O[C@H]2[C@H](N(C)C)[C@@H](O)[C@H](O[C@H]3[C@@H](CC=O)C[C@@H](C)[C@@H](O)/C=C/C=C/C[C@@H](C)OC(=O)C[C@@H](O)[C@@H]3OC)O[C@@H]2C)C[C@@]1(C)OC(=O)CC` [rokitamycin]: the “concentration values in whole blood” value in series [13] is on record as “up to 7 μg/mL”.
